Experimental data taken from publication PMC7400457, “Profiling and Identification of Omeprazole Metabolites in Mouse Brain and Plasma by Isotope Ratio-Monitoring Liquid Chromatography-Mass Spectrometric Method” (Life, 2020).
Read-outs that look alike come from different tables or passages of the source. Blank lines part the entries; values can stand above or below the compound they belong to.

How the values were obtained:
[1] = In vivo metabolite identification (MetID) after concomitant omeprazole/D3-omeprazole administration, mouse plasma and brain; design: species or system Male ICR mice; key to D, i.p. route (brain): found / not found / E, i.v. route (brain): found / not found / F, p.o. route (brain): found / not found / A, i.p. route (plasma): found / not found / B, i.v. route (plasma): found / not found / C, p.o. route (plasma): found / not found: O, found; -, not found; conditions: for D, i.p. route (brain): found / not found / A, i.p. route (plasma): found / not found: 50 mg/kg omeprazole/D3-omeprazole 1:1, i.p.; for D, i.p. route (brain): found / not found / E, i.v. route (brain): found / not found / F, p.o. route (brain): found / not found: mouse brain; for A, i.p. route (plasma): found / not found / B, i.v. route (plasma): found / not found / C, p.o. route (plasma): found / not found: mouse plasma; for E, i.v. route (brain): found / not found / B, i.v. route (plasma): found / not found: 50 mg/kg omeprazole/D3-omeprazole 1:1, i.v.; for samples (matrix/route) in which the metabolite was observed: 50 mg/kg omeprazole/D3-omeprazole 1:1, mice; for F, p.o. route (brain): found / not found / C, p.o. route (plasma): found / not found: 50 mg/kg omeprazole/D3-omeprazole 1:1, p.o.
Procedure: The LC–QTOF-MS system was consisted of a chromatographic pump system (Shimadzu CBM–20A/LC–20AD, Shimadzu Scientific Instruments, Riverwood Dr, Columbia, SC, USA), an auto-sampler system (Eksigent CTC HTS PAL, Sciex, Redwood City, CA, USA), equipped with a mass spectrometer (TripleTOF^TM 5600, Sciex, Redwood City, CA, USA). Chromatographic separation was performed using reversed-phase C18 columns (Phenomenex® Kinetex XB–C18 column; 2.1 × 50 mm for bioanalytical sample quantification and 2.1 × 100 mm for MetID). The HPLC mobile phase was comprised of distilled/deionized water containing 0.1% formic acid (phase A) and acetonitrile containing 0.1% formic acid (phase B) with a binary gradient program. The LC–gradient was optimized as follows: 3.2 min for the quantification (0–0.5 min, 5% B; 0.5–1.2 min, 5–95% B; 1.2–1.4 min, 95% B; 1.4–1.5 min, 95–5% B; and 1.5–3.2 min, 5% B with a flow rate of 0.4 mL/min) and 23 min for MetID (0–1 min, 5% B; 1–13 min, 5–40% B; 13–13.5 min, 40–45% B; 13.5–15.5 min, 45–90% B; 15.5–17.9 min, 90% B; 17.9–18 min, 90–5% B; and 18–23 min, 5% B with a flow rate of 0.3mL/min). In particular, the LC separation conditions for MetID studies were optimized where the peaks of metabolites were separated as much as possible. This was critical in searching for any relevant metabolites originated from omeprazole with unique isotope ratio 1:1.
The single reaction monitoring at high sensitivity option (SRMHS) in the product ion scan was used for the quantification of PK as well as MetID samples. The information-dependent analysis (IDA) method including high resolution TOF full scan and seven unique information-dependent product ion scans were performed for the MetID study. The ion spray voltage (ISVF) was set at 5500 V. The source gas (nebulizer [GS1, ion source gas1] and heater [GS2, ion source gas2]) was set at 50 psi, and the source temperature was set at 500 °C with the curtain gas (CUR) flow of […].
A separate in vivo MetID study was conducted. A total of 50 mg/kg (1:1 ratio of omeprazole and D3–omeprazole) was given through each administration route (p.o., i.v. and i.p.). After administration, blood and brain tissue sampling was conducted in the same manner as the previous PK studies. The collected samples were stored at −80 °C until analysis.
The plasma samples obtained from the study dosed with 50 mg/kg were collected according to the Hamilton pooling method. The pooled plasma sample (a total of 274 μL) was transferred to a clean tube, and 1 mL of ACN was added. The pretreated samples were centrifuged at 10,000 rpm for 5 min, and 1100 μL of the supernatant was evaporated to dryness under vacuum in a centrifugal evaporator (CVE–3110, Eyela, Tokyo, Japan) connected to cold trap (UT–1000, Eyela, Tokyo, Japan). The dried residue was re-constituted, shaken and centrifuged. After centrifugation, the supernatant was transferred to an LC–vial for analysis.
The metabolites of omeprazole were investigated using an LC–QTOF–MS assay. […] In this case, any metabolites having a mass difference of 3 daltons between omeprazole and its stable isotope D3–omeprazole were thoroughly searched as possible drug-related metabolites.

[2] = Pharmacokinetic study of omeprazole in mice after i.v., i.p. and p.o. administration (plasma and brain, LC-QTOF-MS); assay type: in vivo, Male ICR mice; conditions: 10 mg/kg; for Kp: brain/plasma; for bioavailability: read-out: BA (bioavailability)
Procedure: Omeprazole formulation was freshly prepared on the day of experiment. Mice were randomly distributed into three different groups (twelve mice per group; p.o. group, i.v. group and i.p. group) and received 10 mg/kg of omeprazole. […] Blood was drawn into the heparinized tubes through cardiac puncture and was immediately centrifuged at 10,000 rpm for 5 min. The supernatant of the centrifuged samples was transferred to the clean tubes and stored at −80 °C until analysis. […] The homogenized samples were stored at −80 °C until usage. • Plasma samples: Ten microliters of the mouse plasma samples were placed in cluster tubes. […] Hundred microliters of ACN containing internal standard (ISTD, verapamil) was added to each sample for extraction. The mixture was capped, gently shaken for approximately 1 min and then was centrifuged for 5 min at 10,000 rpm (4 °C). Following the centrifugation, 50 μL supernatant was transferred to a clean test tube and was diluted with 100 μL of distilled water. […] Ten microliters of the mouse brain homogenate were placed in cluster tubes. […] Hundred microliters of ACN containing internal standard (ISTD, verapamil) was added to each sample for extraction. The mixture was capped, gently shaken for approximately 1 min and then centrifuged for 5 min at 10,000 rpm (4 °C). Following the centrifugation, 50 μL supernatant was transferred to a clean test tube and was diluted with 100 μL of distilled water. The resulting mixture was then transferred to an LC-vial, and 10 μL was injected to the LC–QTOF–MS. • Standard (STD) and quality control (QC) samples: […] The mixture was capped, gently shaken for approximately 1 min and then centrifuged for 5 min at 10,000 rpm (4 °C). Following the centrifugation, 50 μL supernatant was transferred to a clean test tube and was diluted with 100 μL of distilled water. The resulting mixture was then transferred to an LC–vial, and 10 μL was injected to the LC–QTOF–MS. Data acquisition and LC–QTOF-MS operation was conducted using Analyst® TF Version 1.6 (Sciex). MultiQuant® Version 2.1.1 (Sciex) was used for the peak integration of omeprazole for quantification. PeakView® Version 2.2 and MetabolitePilot^TM Version 2.0.2 were used for the structural elucidation of omeprazole metabolites. Pharmacokinetic parameters were calculated in a non-compartmental analysis using WinNonlin® version 8.0.0 (Certara, Princeton, NJ, USA). The developed LC–QTOF-MS method was successfully applied to determine the PK parameters after i.v., i.p. and p.o. administration at a dose level of 10 mg/kg each for omeprazole in mice. During the sample preparation of the PK samples, QC samples were included for the assurance of the bioanalytical run. All the PK samples were within the range of the qualified calibration range (3.02~6670 ng/mL). Final concentrations were calculated by considering the dilution factors (e.g., 4× and 2× of the concentrations obtained from the brain and plasma, respectively). Each PK parameters were measured by non-compartmental analysis using WinNonlin (version 8.0.0). […] (Kp) = AUCbrain/AUCplasma(1)

Compound: COc1ccc2[nH]c([S+]([O-])Cc3ncc(C)cc3C)nc2c1 (stereo not shown) [Metabolite M11]
- D, i.p. route (brain): found / not found [1]: O
- A, i.p. route (plasma): found / not found [1]: O
- E, i.v. route (brain): found / not found [1]: O
- B, i.v. route (plasma): found / not found [1]: O
- samples (matrix/route) in which the metabolite was observed [1]: all plasma samples (all dosing routes) and all brain samples (all dosing routes)
- F, p.o. route (brain): found / not found [1]: O
- C, p.o. route (plasma): found / not found [1]: O

Compound: COc1c(C)cnc(C[S+]([O-])c2nc3cc(O[C@@H]4O[C@H](C(=O)O)[C@@H](O)[C@H](O)[C@H]4O)ccc3[nH]2)c1C (stereo partly shown) [Metabolite M2]
- D, i.p. route (brain): found / not found [1]: O
- A, i.p. route (plasma): found / not found [1]: O
- E, i.v. route (brain): found / not found [1]: O
- B, i.v. route (plasma): found / not found [1]: O
- samples (matrix/route) in which the metabolite was observed [1]: all samples except the brain–PO route sample
- F, p.o. route (brain): found / not found [1]: -
- C, p.o. route (plasma): found / not found [1]: O

Compound: COc1ccc2[nH]c(SCC(NC(C)=O)C(=O)O)nc2c1 (stereo not shown) [Metabolite M1]
- D, i.p. route (brain): found / not found [1]: -
- A, i.p. route (plasma): found / not found [1]: O
- E, i.v. route (brain): found / not found [1]: -
- B, i.v. route (plasma): found / not found [1]: O
- samples (matrix/route) in which the metabolite was observed [1]: plasma–IV route and plasma-IP route samples
- F, p.o. route (brain): found / not found [1]: -
- C, p.o. route (plasma): found / not found [1]: -

Further lines, with some results ahead:

- D, i.p. route (brain): found / not found [1]: O
- A, i.p. route (plasma): found / not found [1]: O
- E, i.v. route (brain): found / not found [1]: O
- B, i.v. route (plasma): found / not found [1]: O
- F, p.o. route (brain): found / not found [1]: O
- C, p.o. route (plasma): found / not found [1]: O
Compound: COc1ccc2[nH]c([S+]([O-])Cc3ncc(C)c(OC)c3C)nc2c1 (stereo not shown) [Omeprazole]
- brain-to-plasma partition coefficient (Kp) = AUCbrain/AUCplasma ([2]; i.p., AUClast): 0.0681
- Kp ([2]; male, ICR, mouse, ip, i.p., AUClast, read-out: brain-to-plasma partition coefficient (Kp) = AUCbrain/AUCplasma): 0.068
- Kp ([2]; male, ICR, mouse, ip, i.p., read-out: Brain/Plasma Ratio): 0.0681
- Kp ([2]; male, ICR, mouse, iv, i.v., AUClast, read-out: brain-to-plasma partition coefficient (Kp) = AUCbrain/AUCplasma): 0.15
- Kp ([2]; male, ICR, mouse, iv, i.v., read-out: Brain/Plasma Ratio): 0.147
- Kp ([2]; male, ICR, mouse, po, p.o., AUClast, read-out: brain-to-plasma partition coefficient (Kp) = AUCbrain/AUCplasma): 0.064
- Kp ([2]; male, ICR, mouse, po, p.o., read-out: Brain/Plasma Ratio): 0.0643
- AUC(0-t) ([2]; male, ICR, mouse, ip, brain): 0.0728 µg·h/mL
- half-life ([2]; male, ICR, mouse, ip, brain): 51.3 min
- AUC(0-t) ([2]; male, ICR, mouse, ip, plasma): 1.07 µg·h/mL
- Cmax ([2]; male, ICR, mouse, ip, plasma): 4.89 µg/mL
- half-life ([2]; male, ICR, mouse, ip, plasma): 28.8 min
- AUC(0-t) ([2]; male, ICR, mouse, iv, brain): 0.652 µg·h/mL
- half-life ([2]; male, ICR, mouse, iv, brain): 48.2 min
- AUC(0-t) ([2]; male, ICR, mouse, iv, plasma): 4.44 µg·h/mL
- Cmax ([2]; male, ICR, mouse, iv, plasma): 67.6 µg/mL
- Vd ([2]; male, ICR, mouse, iv, plasma): 1.49 L/kg
- clearance ([2]; male, ICR, mouse, iv, plasma): 2.27 L/h/kg
- half-life ([2]; male, ICR, mouse, iv, plasma): 27.4 min
- bioavailability ([2]; male, ICR, mouse, plasma, ip): 24.1%
- bioavailability ([2]; male, ICR, mouse, plasma, po): 5.31%
- AUC(0-t) ([2]; male, ICR, mouse, po, brain): 0.0152 µg·h/mL
- Cmax ([2]; male, ICR, mouse, po, brain): 0.0378 µg/mL
- half-life ([2]; male, ICR, mouse, po, brain): 44.6 min
- AUC(0-t) ([2]; male, ICR, mouse, po, plasma): 0.236 µg·h/mL
- Cmax ([2]; male, ICR, mouse, po, plasma): 0.61 µg/mL
- half-life ([2]; male, ICR, mouse, po, plasma): 54.8 min
- brain-to-plasma partition coefficient (Kp) = AUCbrain/AUCplasma ([2]; p.o., AUClast): 0.0643

- D, i.p. route (brain): found / not found [1]: O
- A, i.p. route (plasma): found / not found [1]: O
- E, i.v. route (brain): found / not found [1]: O
- B, i.v. route (plasma): found / not found [1]: O
- F, p.o. route (brain): found / not found [1]: O
- C, p.o. route (plasma): found / not found [1]: O
Compound: COc1ccc2[nH]c(SCc3ncc(C)c(OC)c3C)nc2c1 [Metabolite M15, omeprazole sulfide]
- samples (matrix/route) in which the metabolite was observed ([1]; 50 mg/kg): all plasma samples (all dosing routes) and all brain samples (all dosing routes)

- D, i.p. route (brain): found / not found [1]: O
- A, i.p. route (plasma): found / not found [1]: -
- E, i.v. route (brain): found / not found [1]: O
- B, i.v. route (plasma): found / not found [1]: -
- F, p.o. route (brain): found / not found [1]: -
- C, p.o. route (plasma): found / not found [1]: -
Compound: COc1c(C)cnc(CSc2nc3cc(O)ccc3[nH]2)c1C [Metabolite M17]
- samples (matrix/route) in which the metabolite was observed [1]: only from the brain–IP route and brain–IV route

- D, i.p. route (brain): found / not found [1]: O
- A, i.p. route (plasma): found / not found [1]: O
- E, i.v. route (brain): found / not found [1]: O
- B, i.v. route (plasma): found / not found [1]: O
- F, p.o. route (brain): found / not found [1]: O
- C, p.o. route (plasma): found / not found [1]: O
Compound: COc1ccc2nc(S(=O)(=O)Cc3ncc(C)c(OC)c3C)[nH]c2c1 [Metabolite M14, omeprazole sulfone]
- samples (matrix/route) in which the metabolite was observed [1]: all plasma samples (all dosing routes) and all brain samples (all dosing routes)
